row,SMILES,melting point
1,"CC1(C)CC(=O)c2c(C(C)(C)C)cn(-c3ccccn3)c2C1 [Example 2, 6,6-Dimethyl-3-(1,1-dimethylethyl)-1-(pyridin-2-yl)-4,5,6,7-tetrahydroindol-4-one]",143 to 145 °C
2,"CC1(C)CC(=O)c2c(SCc3ccccc3)cn(-c3ccccn3)c2C1 [Example 14, 6,6-Dimethyl-3(phenylmethyl)thio-1-(pyridin-2-yl)-4,5,6,7-tetrahydroindol-4-one]",190 to 192 °C
3,"CCc1cn(-c2ncccn2)c2c1C(=O)CC(C)(C)C2 [Example 4, 3-Ethyl-6,6-dimethyl-1-(pyrimidin-2-yl)-4,5,6,7-tetrahydroindol-4-one]",111 to 114 °C
4,"CC1(C)CC(=O)c2c(-c3nccs3)cn(-c3ccccn3)c2C1 [Example 15, 6,6-Dimethyl-1-(pyridin-2-yl)-3-(thiazol-2-yl)-4,5,6,7-tetrahydroindol-4-one]",166 to 168 °C
5,"CCc1cn(-c2ccccn2)c2c1C(=O)CC(C)(C)C2 [Example 1, 6,6-Dimethyl 3-Ethyl-1-(pyridin-2-yl)-4,5,6,7-tetrahydroindol-4-one]",125 to 127 °C
6,"CC1(C)CC(=O)c2c(Nc3ccccn3)cn(-c3ccccn3)c2C1 [Example 23, 6,6-Dimethyl-1-(pyridin-2-yl)-3-(pyridin-2-ylamino)-4,5,6,7-tetrahydroindol-4-one]",180 to 183 °C
7,"CCc1cn(-c2nccs2)c2c1C(=O)CC(C)(C)C2 [Example 5, 6,6-Dimethyl-3-ethyl-1-(thiazol-2-yl)-4,5,6,7-tetrahydroindol-4-one]",58 to 60 °C
8,"CC1(C)CC(=O)c2c(-c3ccccc3)cn(-c3ccccn3)c2C1 [Example 16, 6,6-Dimethyl-3-phenyl-1-(pyridin-2-yl)-4,5,6,7-tetrahydroindol-4-one]",160 to 162 °C
9,"C=Cc1cn(-c2ccccn2)c2c1C(=O)CC(C)(C)C2 [Example 18, 6,6-Dimethyl-1-(pyridin-2-yl)-3-vinyl-4,5,6,7-tetrahydroindol-4-one]",150 to 154 °C
10,"CC1(C)CC(=O)c2c(-c3ccccn3)cn(-c3ccccn3)c2C1 [Example 17, 6,6-Dimethyl-1-(pyridin-2-yl)-3-(pyridin-2-yl)-4,5,6,7-tetrahydroindol-4-one]",171 to 174 °C
11,"CC1(C)CC(=O)c2c(-c3cncs3)cn(-c3ccccn3)c2C1 [Example 21, 6,6-Dimethyl-1-(pyridin-2-yl)-3-(thiazol-5-yl)-4,5,6,7-tetrahydroindol-4-one]",167 to 169 °C
12,"CC1(C)CC(=O)c2c(Cc3ccccc3)cn(-c3ccccn3)c2C1 [Example 19, 6,6-Dimethyl-3-phenylmethyl-1-(pyridin-2-yl)-4,5,6,7-tetrahydroindol-4-one]",111 to 113 °C
13,"CC1(C)CC(=O)c2c(Nc3ccccc3)cn(-c3ccccn3)c2C1 [Example 22, 6,6-Dimethyl-3-phenylamino-1-(pyridin-2-yl)-4,5,6,7-tetrahydroindol-4-one]",135 to 138 °C

# Reference: patent US6395766B1, “Tetrahydroindolone derivatives as gabaaalpha5 ligands for enhancing cognition” (Merck Sharp & Dohme Limited, priority 1998, dated 2002)
